Data taken from patent US11905518B2, “Small auxin upregulated (SAUR) gene for the improvement of root system architecture, waterlogging tolerance, drought resistance and yield in plants and methods of uses” (Curators of the University of Missouri, priority 2018, dated 2024).

Tested on: NILs (NIL147_aa and NIL147_AA)
Test: Waterlogging treatment of NILs with auxin biosynthesis inhibitor PCIB
Type: in vivo, soybean
Description: FIGS. 7A-7C depict involvement of auxin in the regulation of waterlogging tolerance. Complementation of qWL_Gm03 by auxin biosynthesis inhibitor in waterlogging tolerance (FIG. 7A) and induction of adventitious roots (FIG. 7B). The two lines were waterlogging treated for 10 days using water (control) and 10 μM p-Chlorophen-oxyisobutyric acid (PCIB: an auxin biosynthesis inhibitor). Then plants were allowed to recover for 7 days (left) before evaluation for flooding injury scores and adventitious root rating. Data shown are means±standard deviations of 9 biological replicates (soil pots) and each replicate contains 2 to 3 plants. Student's-t-test was used to compare means between NIL147_aa and NIL147_AA. FIG. 7C Expression of GmARF20 in the roots during waterlogging treatment. GmARF20 in soybean is the closest homologue of AtARF19 in Arabidopsis (Ha et al. 2013). Data shown are means±standard deviations of two biological replicates and each replicate contains 10 plants.
Waterlogging test were performed in both field and greenhouse. Field tests for RIL populations and fine-mapping were conducted at the Lee Farm at the DRC in Portageville, MO The evaluation of NILs were performed at four locations, including DRC (MO), Rhower Research Station (AR), Delta Research and Extension Center (MS) and Red River Research Station (LA). The soil types of the four locations were Sharkey clay (very fine, smectitic, thermic Chromic Epiaquerts). Each lines were planted in hill plots at a density of 8 seeds per plot with 1 meter spacing with 2 to 3 replications. Waterlogging treatments were imposed by flood irrigation. Water was pumped on the field when 80% of the lines within each maturity block were at the R1 growth stage (Fehr and Caviness 1977). […]
Auxin generally promotes root initiation and elongation (reviewed by Overvoorde et al. 2010). Therefore, the involvement of auxin in waterlogging tolerance was further evaluated by the treatment of an auxin biosynthesis inhibitor: p-Chlorophen-oxyisobutyric acid (PCIB) on the NILs (NIL147_aa and NIL147_AA) during waterlogging. […]

[1] = 10 μM PCIB vs water control, waterlogging treated for 10 days, 7 days recovery, NIL147_aa and NIL147_AA

CC(C)(Oc1ccc(Cl)cc1)C(=O)O [PCIB, p-Chlorophen-oxyisobutyric acid]
genotypic differences of qWL_Gm03 in waterlogging tolerance performance and formation of adventitious/aerial roots (10 μM PCIB during waterlogging, NIL147_aa vs NIL147_AA): complement the genotypic differences | formation of adventitious/aerial roots (adventitious root rating) [1]: significantly impair | waterlogging tolerance (flooding injury scores) [1]: significantly impair
